Experimental data published in patent US20200030269A1, “ANIMAL FEED COMPOSITIONS OF ABSCISIC ACID” (Valent BioSciences LLC, priority 2010, published 2020).
Several values for one entry are separate records, joined by “and”; a condition that tells them apart may be missing. Equal entries are not always repeated.

Assays:
Type in all cases: in vivo
[1] = test system: Male Cobb 500 chickens; assay: Example 1 broiler feeding study: cumulative bird mortality after 42 days
Description: (§1) Male Cobb 500 chickens were fed different levels of S-ABA supplemented into starter, grower, and finisher feed diets for their entire 42 day commercial life cycle. On day 43, samples of chickens (sometimes referred to as “birds”) from each treatment were processed.
(§2) The starter, grower, and finisher basal diets represented standard commercial broiler diets. The starter and grower diets contained Salinomycin (a coccidiostat) at 40 grams/ton. The basal diets and final treatment diets were prepared using a 500 or 4,000 pound capacity vertical mixer or a 14,000 pound capacity horizontal mixer. After correcting for percent purity of S-ABA in the S-ABA dry powder, S-ABA was added to the basal diets at concentrations of 5, 50, or 500 ppm (4.6, 46, or 455 grams of S-ABA/ton). Control treatments included (1) commercial diet only and (2) commercial diet supplemented with antibiotics (bacitracin methylene disalicylate (BMD), and STAFAC® virginiamycin (hereinafter “Stafac”). STAFAC is a registered trademark of Phibro Animal Health Corporation). All feed diets were pelleted at ˜65° C. or below.
(§3) A 90-pen test facility was divided into 10 blocks containing 9 pens per block. Treatments were assigned to the pens using a complete randomized block design. Birds were assigned to the pens randomly. Specific treatment groups were as follows:
(§4) Starting on study day 0, any bird found dead or needing to be removed and sacrificed was weighed and necropsied. The probable cause of death and necropsy findings were recorded.

[2] = test system: Male Cobb 500 chickens; assay: Example 1 broiler feeding study: bird weights and feed conversion ratios; settings: for Adjusted Feed/Gain Ratio, mean / Bird Weight, mean / Feed/Gain Ratio, mean: 5 ppm S-ABA in feed, dirty litter
Description: as §1, §2, §3
Feed was provided ad libitum throughout the study via one handing, ˜17-inch diameter tube feeder per pen. Chick feeder trays were placed in each pen for approximately the first 4 days. Feed added and removed from pens was weighed and recorded from day 0 to day 42. Diet changes were conducted at the same time for all pens. The feeding period for each diet was as shown below:
Birds were weighed by pen at 0, 7, 14, 21, 28, 35, and 42 days of age. The feed remaining in each pen was weighed and recorded on study day 0, 7, 14, 21, 28, 35, and 42 days of age. The feed intake during days 0-7, 0-14, 0-21, 0-28, 0-35, and 0-42 was calculated.
Performance data was summarized by average weight per bird at each body weights measurement period. The average feed conversion was calculated for each respective body weight period using the total feed consumption in a pen divided by the total weight of surviving birds (i.e. days 0-7, 0-14, 0-21, etc.). Adjusted feed conversion was calculated using the total feed consumption in a pen divided by the total weight of surviving birds and weight of birds that died or were removed from that pen.

[3] = test system: Male Cobb 500 chickens; assay: Example 1 broiler feeding study: digestive tract weights at processing on day 43; settings: for Digestive Tract Weights, Mean Weight: dirty litter, day 43
Description: as §1, §2, §3
Four blocks (9 pens/block) were selected at random from each treatment. On day 42 all birds in the selected blocks were individually wing banded with a unique number. Prior to processing the birds were fasted for approximately 12 hours. Immediately after processing on day 43, digestive tract weights and Bursa of Fabricius organ weights were measured.

[4] = test system: Male and female Cobb 500 chickens; assay: Example 2 broiler feeding study: cumulative bird mortality after 42 days
Description: Male and female Cobb 500 chickens were fed different levels of S-ABA supplemented into starter, grower, and finisher feed diets for their entire 42 days commercial life cycle.
The starter, grower, and finisher basal diets represented standard commercial broiler diets. The starter and grower diets contained Salinomycin (a coccidiostat) at 40 grams/ton. The basal diets and final treatment diets were prepared using a 500 or 4,000 pound capacity vertical mixer or a 14,000 pound capacity horizontal mixer. After correcting for percent purity of S-ABA in the S-ABA dry powder, S-ABA was added to the basal diets at concentrations of 2.5, 5.0, or 7.5 ppm (2.3, 4.6, or 6.8 grams of S-ABA/ton). Control treatments included (1) commercial diet only and (2) commercial diet supplemented with antibiotics (bacitracin methylene disalicylate and Stafac). All feed diets were pelleted at ˜65° C. or below.
A 108-pen test facility was divided into 18 blocks containing 6 pens per block. Treatments were assigned to the pens using a complete randomized block design. Birds were assigned to the pens randomly. Specific treatment groups were as follows:
as §4

[5] = commercial feed diet plus 5 ppm S-ABA, dirty litter, 42 days
[6] = 5 ppm S-ABA in commercial feed diet versus control 1

CC1=CC(=O)CC(C)(C)[C@@]1(O)/C=C/C(C)=C\C(=O)O [S-ABA, (S)-(+)-abscisic acid]
bird mortality compared to the control treatments ([1]; 5 ppm S-ABA in commercial feed diets, versus control 1 and BMD/Stafac control 2): significantly (P=0.05) lower bird mortality
Cumulative Bird Mortality After 42 Days: Died [1, 5]: 0
Cumulative Bird Mortality After 42 Days: Lived [1, 5]: 200
bird growth (weights) compared to the commercial feed diet (control 1) ([2]; 5 ppm S-ABA in commercial feed): increased bird growth (weights)
lowering of adjusted feed conversion ratios (corrected for number of surviving birds) [2, 6]: 1-2 points
reduction of feed conversion ratios [2, 6]: 1-4 points
Adjusted Feed/Gain Ratio, mean ([2]; Day 7): 1.4093
Bird Weight, mean ([2]; Day 7): 0.1445 kg
Feed/Gain Ratio, mean ([2]; Day 7): 1.4093
Adjusted Feed/Gain Ratio, mean ([2]; Day 14): 1.2854
Bird Weight, mean ([2]; Day 14): 0.3873 kg
Feed/Gain Ratio, mean ([2]; Day 14): 1.3400
Adjusted Feed/Gain Ratio, mean ([2]; Day 21): 1.3842
Bird Weight, mean ([2]; Day 21): 0.7899 kg
Feed/Gain Ratio, mean ([2]; Day 21): 1.4137
Adjusted Feed/Gain Ratio, mean ([2]; Day 28): 1.4517
Bird Weight, mean ([2]; Day 28): 1.4236 kg
Feed/Gain Ratio, mean ([2]; Day 28): 1.4584
Adjusted Feed/Gain Ratio, mean ([2]; Day 35): 1.5610
Bird Weight, mean ([2]; Day 35): 2.0919 kg
Feed/Gain Ratio, mean ([2]; Day 35): 1.5731
Adjusted Feed/Gain Ratio, mean ([2]; Day 42): 1.6691
Bird Weight, mean ([2]; Day 42): 2.7565 kg
Feed/Gain Ratio, mean ([2]; Day 42): 1.6861
weight of digestive tracts compared to the commercial feed diets (control 1 and control 2) ([3]; S-ABA in the feed diet): increases the weight of digestive tracts
Digestive Tract Weights, Mean Weight ([3]; commercial feed diet plus 5 ppm S-ABA): 86.7 Grams
Digestive Tract Weights, Mean Weight ([3]; commercial feed diet plus 50 ppm S-ABA): 86.6 Grams
Digestive Tract Weights, Mean Weight ([3]; commercial feed diet plus 500 ppm S-ABA): 88.4 Grams
survival rates compared to the commercial feed diet containing bacitracin methylene disalicylate and Stafac ([4]; ABA added to commercial feed diets, 42 days): higher survival rates
Cumulative Bird Mortality After 42 Days: Mortality ([4]; S-ABA 2.5 ppm in feed, Female, dirty litter): 2.4%
Cumulative Bird Mortality After 42 Days: Mortality ([4]; S-ABA 2.5 ppm in feed, Male, dirty litter): 4.1%
Cumulative Bird Mortality After 42 Days: Mortality ([4]; S-ABA 5.0 ppm in feed, Female, dirty litter (two treatment groups)): 0.4% and 1.9%
Cumulative Bird Mortality After 42 Days: Mortality ([4]; S-ABA 5.0 ppm in feed, Male, dirty litter (two treatment groups)): 2.9% and 3.5%
Cumulative Bird Mortality After 42 Days: Mortality ([4]; S-ABA 7.5 ppm in feed, Female, dirty litter): 2.2%
Cumulative Bird Mortality After 42 Days: Mortality ([4]; S-ABA 7.5 ppm in feed, Male, dirty litter): 3.8%
